Test results as given in patent US20240270821A1, “GIP/GLP1/GCG TRI-RECEPTOR AGONISTS AND USES THEREOF” (priority 2023, published 2024).
Read-outs that look alike come from different tables or passages of the source. Starred links: 1 amine or outer side, 2 acyl side, 3 side chain; linkers in the order of their positions; H or OH if unused. Non-standard residues stand in square brackets, D forms with d. Residues, ends and D or L forms follow the SMILES beside them. Groups on a side chain read outwards from the residue. *: point of attachment. C20 diacid = O=C(O)CCCCCCCCCCCCCCCCCCC(=O)*; C18 diacid = O=C(O)CCCCCCCCCCCCCCCCC(=O)*; αMePhe(2-F) = C[C@](N)(Cc1ccccc1F)C(=O)O; γGlu = O=C(O)[C@H](CCC(=O)[*:2])N[*:1]; αMe4Pal = C[C@](N)(Cc1ccncc1)C(=O)O; αMeY = C[C@](N)(Cc1ccc(O)cc1)C(=O)O; αMeF = C[C@](N)(Cc1ccccc1)C(=O)O; 4Pal = N[C@@H](Cc1ccncc1)C(=O)O; αMeL = CC(C)C[C@](C)(N)C(=O)O; αMeS = C[C@](N)(CO)C(=O)O; Orn = NCCC[C@H](N)C(=O)O; AEEA = NCCOCCOCC(=O)O; Aib = CC(C)(N)C(=O)O

What was measured:
Assay type in all cases: cell-based
[1] = biological target: T1, hGIPR (Homo sapiens, UniProt P48546); test: Functional cAMP activation in the presence of 0.1% casein (no HSA); conditions: read-out: Relative cAMP EC50, hGIPR;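 note: intracellular cAMP rise after 30 min at 37 °C read by HTRF against a standard curve, scaled between buffer alone (0%) and top control ligand concentration (100%), four-parameter fit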
T1 sequence (P48546 22-466): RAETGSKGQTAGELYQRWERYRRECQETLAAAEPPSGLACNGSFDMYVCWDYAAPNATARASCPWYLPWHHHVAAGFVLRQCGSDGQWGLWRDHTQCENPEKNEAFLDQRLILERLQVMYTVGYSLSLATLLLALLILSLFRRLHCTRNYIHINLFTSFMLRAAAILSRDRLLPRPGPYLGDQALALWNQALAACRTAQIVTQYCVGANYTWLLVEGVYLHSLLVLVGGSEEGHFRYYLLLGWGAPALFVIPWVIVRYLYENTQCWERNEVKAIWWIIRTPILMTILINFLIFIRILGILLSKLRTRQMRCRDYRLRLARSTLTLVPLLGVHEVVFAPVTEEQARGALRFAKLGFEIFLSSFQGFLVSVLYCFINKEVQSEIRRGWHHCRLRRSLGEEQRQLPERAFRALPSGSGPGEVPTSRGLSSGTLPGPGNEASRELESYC

[2] = biological target: human GcgR (Homo sapiens, UniProt P47871); test: Functional cAMP activity in the presence of 1% HSA; conditions: read-out: cAMP Rel EC50, hGcgR
Chain of human GcgR (P47871 26-477): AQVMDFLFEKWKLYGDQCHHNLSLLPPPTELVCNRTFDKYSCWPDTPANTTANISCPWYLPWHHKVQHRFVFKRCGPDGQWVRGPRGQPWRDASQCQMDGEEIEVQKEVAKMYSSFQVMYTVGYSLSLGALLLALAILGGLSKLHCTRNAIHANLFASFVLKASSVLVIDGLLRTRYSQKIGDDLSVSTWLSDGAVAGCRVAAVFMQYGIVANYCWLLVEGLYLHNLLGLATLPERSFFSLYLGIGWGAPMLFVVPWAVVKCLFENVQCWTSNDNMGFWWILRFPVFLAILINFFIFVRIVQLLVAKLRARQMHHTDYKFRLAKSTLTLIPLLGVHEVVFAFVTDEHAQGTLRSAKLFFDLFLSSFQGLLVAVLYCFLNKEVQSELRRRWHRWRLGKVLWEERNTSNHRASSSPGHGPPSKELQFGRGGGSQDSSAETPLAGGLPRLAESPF

[3] = biological target: T2, hGLP-1R (Homo sapiens, UniProt P43220); test: Functional cAMP activation in the presence of 0.1% casein (no HSA); conditions: read-out: Relative cAMP EC50, hGLP-1R;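 note: intracellular cAMP rise after 30 min at 37 °C read by HTRF, normalized between buffer only (0%) and maximal control ligand (100%), four-parameter variable-slope fit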
T2 sequence (P43220 24-463): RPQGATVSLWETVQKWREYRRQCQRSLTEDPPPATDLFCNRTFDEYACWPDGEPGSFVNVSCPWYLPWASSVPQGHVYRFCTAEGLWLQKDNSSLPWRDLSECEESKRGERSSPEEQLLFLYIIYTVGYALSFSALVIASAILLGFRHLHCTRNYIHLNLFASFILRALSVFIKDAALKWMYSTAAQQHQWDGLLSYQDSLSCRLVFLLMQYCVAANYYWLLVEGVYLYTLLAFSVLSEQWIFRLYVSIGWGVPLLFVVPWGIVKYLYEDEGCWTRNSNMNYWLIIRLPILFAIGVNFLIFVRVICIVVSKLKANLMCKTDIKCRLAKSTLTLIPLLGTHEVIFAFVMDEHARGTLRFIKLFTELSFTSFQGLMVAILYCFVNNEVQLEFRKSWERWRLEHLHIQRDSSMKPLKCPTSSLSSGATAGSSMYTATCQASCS

[4] = biological target: hGcgR (Homo sapiens, UniProt P47871); test: as above; conditions: read-out: Relative cAMP EC50, hGcgR;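 note: intracellular cAMP rise after 30 min at 37 °C, read by HTRF against a cAMP standard curve, scaled from buffer only (0%) to maximal control ligand response (100%)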
Chain of hGcgR (P47871 26-477): as the sequence (P47871 26-477) above

[5] = biological target: T2, hGLP-1R; test: Functional cAMP activity in the presence of 1% HSA; conditions: read-out: cAMP Rel EC50, hGLP-1R
[6] = biological target: T1, hGIPR; test: Functional cAMP activity in the presence of 1% HSA; conditions: read-out: cAMP Rel EC50, hGIPR
[7] = in the presence of 0.1% casein (no HSA), geometric mean

Row | Compound | EC50 [1, 7] | EC50 [2] | EC50 [3, 7] | EC50 [4, 7] | EC50 [5] | EC50 [6] | EC50 [1] | EC50 [3] | EC50 [4]
1 | CC[C@H](C)[C@H](NC(=O)[C@H](CC(C)C)NC(=O)[C@H](Cc1ccc(O)cc1)NC(=O)[C@H](CCC(=O)O)NC(=O)[C@@H](NC(=O)[C@H](Cc1ccccc1)NC(=O)[C@H](C)NC(=O)[C@](C)(Cc1ccncc1)NC(=O)[C@H](CCC(N)=O)NC(=O)[C@H](C)NC(=O)[C@H](CCCCNC(=O)COCCOCCNC(=O)CC[C@H](NC(=O)CC[C@H](NC(=O)CCCCCCCCCCCCCCCCC(=O)O)C(=O)O)C(=O)O)NC(=O)[C@H](CCCCN)NC(=O)[C@H](CC(=O)O)NC(=O)[C@H](CC(C)C)NC(=O)[C@](C)(CC(C)C)NC(=O)[C@H](CCC(N)=O)NC(=O)[C@H](CO)NC(=O)[C@H](Cc1ccncc1)NC(=O)[C@H](CC(=O)O)NC(=O)[C@H](CO)NC(=O)[C@@H](NC(=O)[C@H](Cc1ccccc1)NC(=O)[C@@H](NC(=O)CNC(=O)[C@H](CCC(N)=O)NC(=O)C(C)(C)NC(=O)[C@@H](N)Cc1ccc(O)cc1)[C@@H](C)O)[C@@H](C)O)[C@@H](C)CC)C(=O)N[C@@H](C)C(=O)NCC(=O)NCC(=O)N1CCC[C@H]1C(=O)N[C@@H](CO)C(=O)N[C@@H](CO)C(=O)NCC(=O)N[C@@H](C)C(=O)N1CCC[C@H]1C(=O)N1CCC[C@H]1C(=O)N1CCC[C@H]1C(=O)N[C@@H](CO)C(=O)NCC(=O)N[C@@H](CO)C(N)=O [Example 869] | 0.142 nM | 571 nM | 2 nM | 9.94 nM | 114 nM | 14.1 nM | – | – | –
2 | H-Y[Aib]QGTFTSD[4Pal]SK[αMeL]LDKK([AEEA-γGlu-C18 diacid])AQ[Aib]AFIEYLIE[Aib]GPSSGAPPPSGS-NH2 [Example 801] | 0.147 nM | 1200 nM | 0.938 nM | 5.51 nM | 133 nM | 18.1 nM | – | – | –
3 | H-Y[Aib]QGTFTSD[4Pal]SQ[αMeL]LD[Orn]K([AEEA-γGlu-C18 diacid])AQ[Aib]AFIE[αMeY]LIEGGPSSGAPPPSGS-NH2 [Example 850] | 0.346 nM | 3660 nM | 0.451 nM | 28.4 nM | 57.8 nM | 27 nM | – | – | –
4 | H-Y[Aib]QGTFTSD[4Pal]SQ[αMeL]LDKK([AEEA-γGlu-C18 diacid])AQ[αMe4Pal]AFIEWLIEGGPSSGAPPPSGT-NH2 [Example 831] | 0.604 nM | 1450 nM | 0.672 nM | 4.63 nM | 237 nM | 38.2 nM | – | – | –
5 | H-Y[Aib]QGTFTSDFS[Orn][αMeL]LDKK([AEEA-γGlu-C20 diacid])AQ[Aib]AFIEYLLAGGPSSGAPPPSGSE-NH2 [Example 84] | 0.21 nM | 2280 nM | 1.61 nM | 8.48 nM | 701 nM | 57.4 nM | – | – | –
6 | H-Y[Aib]QGT[αMeF]TSD[4Pal][αMeS]I[αMeL]LD[Orn]K([γGlu-γGlu-C18 diacid])AQ[αMe4Pal]EFI[dE][αMeY]LIEGGPSSGAPPPSGE-NH2 [Example 1170] | 0.00783 nM | 249 nM | 0.395 nM | 2.43 nM | 50.2 nM | 0.663 nM | – | – | –
7 | CC[C@H](C)[C@H](NC(=O)[C@H](Cc1ccccc1)NC(=O)[C@H](C)NC(=O)C(C)(C)NC(=O)[C@H](CCC(N)=O)NC(=O)[C@H](C)NC(=O)[C@H](CCCCNC(=O)COCCOCCNC(=O)CC[C@H](NC(=O)CCCCCCCCCCCCCCCCC(=O)O)C(=O)O)NC(=O)[C@H](CCCCN)NC(=O)[C@H](CC(=O)O)NC(=O)[C@H](CC(C)C)NC(=O)[C@H](CC(C)C)NC(=O)[C@H](CCC(=O)O)NC(=O)[C@](C)(CO)NC(=O)[C@H](Cc1ccc(O)cc1)NC(=O)[C@H](CC(=O)O)NC(=O)[C@H](CO)NC(=O)[C@@H](NC(=O)[C@](C)(Cc1ccccc1F)NC(=O)[C@@H](NC(=O)CNC(=O)[C@H](CCC(N)=O)NC(=O)C(C)(C)NC(=O)[C@@H](N)Cc1ccc(O)cc1)[C@@H](C)O)[C@@H](C)O)C(=O)N[C@@H](CCC(=O)O)C(=O)N[C@@H](Cc1ccc(O)cc1)C(=O)N[C@@H](CC(C)C)C(=O)N[C@@H](CCC(=O)O)C(=O)N[C@@H](CCC(=O)O)C(=O)NCC(=O)NCC(=O)N1CCC[C@H]1C(=O)N[C@@H](CO)C(=O)N[C@@H](CO)C(=O)NCC(=O)N[C@@H](C)C(=O)N1CCC[C@H]1C(=O)N1CCC[C@H]1C(=O)N1CCC[C@H]1C(=O)N[C@@H](CCC(=O)O)C(N)=O [Example 467] (H-Y[Aib]QGT[αMePhe(2-F)]TSDY[αMeS]ELLDKK([AEEA-γGlu-C18 diacid])AQ[Aib]AFIEYLEEGGPSSGAPPPE-NH2) | – | 850 nM | – | – | 36.4 nM | 10.7 nM | 0.0855 nM | 0.358 nM | 9.34 nM
8 | H-Y[Aib]QGTFTSD[4Pal][αMeS]Q[αMeL]LD[Orn]K([dE-γGlu-C18 diacid])AQ[αMe4Pal]QFIE[αMeY]LIA[Aib]GPSSGAPPPSGGGE-NH2 [Example 1185] | 0.0266 nM | 206 nM | 0.762 nM | 1.64 nM | 66.1 nM | 2.31 nM | – | – | –
9 | H-Y[Aib]QGT[αMePhe(2-F)]TSD[4Pal][αMeS]I[αMeL]LD[Orn]K([AEEA-γGlu-C18 diacid])AQ[αMe4Pal]EFI[dE][αMeY]LVEGGPSSGEPPPSGSEE-NH2 [Example 736] | – | 245 nM | – | – | 46.3 nM | 1.23 nM | 0.014 nM | 0.489 nM | 2.85 nM
10 | H-Y[Aib]QGT[αMePhe(2-F)]TSD[4Pal][αMeS]I[αMeL]LD[Orn]K([AEEA-γGlu-γGlu-C18 diacid])AQ[αMe4Pal]EFI[dE][αMeY]LIEGGPSSGAPPPSGSE-NH2 [Example 1178] | 0.00913 nM | 270 nM | 0.437 nM | 3.08 nM | 39 nM | 0.544 nM | – | – | –
11 | H-Y[Aib]QGT[αMePhe(2-F)]TSD[4Pal][αMeS]I[αMeL]LD[Orn]K([AEEA-γGlu-C18 diacid])AQ[Aib][Orn]FI[dE]YLIEGGPSSGEPPPSGTEE-NH2 [Example 533] | – | 453 nM | – | – | 30 nM | 3.23 nM | 0.0388 nM | 0.334 nM | 5.02 nM
12 | H-Y[Aib]QGTFTSDYSI[αMeL]LDKQAAK([AEEA-AEEA-γGlu-C20 diacid])QFVNWLLA[Aib]GPSSGEPPPSEG-NH2 [Example 325] | 0.351 nM | 774 nM | 1.56 nM | 2.43 nM | 371 nM | 82.7 nM | – | – | –
13 | CC[C@H](C)[C@H](NC(=O)[C@H](Cc1ccccc1)NC(=O)[C@H](C)NC(=O)[C@](C)(Cc1ccncc1)NC(=O)[C@H](CCC(N)=O)NC(=O)[C@H](C)NC(=O)[C@H](CCCCNC(=O)CC[C@H](NC(=O)CC[C@H](NC(=O)CCCCCCCCCCCCCCCCC(=O)O)C(=O)O)C(=O)O)NC(=O)[C@H](CCCN)NC(=O)[C@H](CC(=O)O)NC(=O)[C@H](CC(C)C)NC(=O)[C@](C)(CC(C)C)NC(=O)[C@H](CCC(N)=O)NC(=O)[C@H](CO)NC(=O)[C@H](Cc1ccncc1)NC(=O)[C@H](CC(=O)O)NC(=O)[C@H](CO)NC(=O)[C@@H](NC(=O)[C@H](Cc1ccccc1)NC(=O)[C@@H](NC(=O)CNC(=O)[C@H](CCC(N)=O)NC(=O)C(C)(C)NC(=O)[C@@H](N)Cc1ccc(O)cc1)[C@@H](C)O)[C@@H](C)O)C(=O)N[C@@H](CCC(=O)O)C(=O)N[C@@H](Cc1ccc(O)cc1)C(=O)N[C@@H](CC(C)C)C(=O)N[C@H](C(=O)N[C@@H](CCC(=O)O)C(=O)N[C@H](C)C(=O)NCC(=O)N1CCC[C@H]1C(=O)N[C@@H](CO)C(=O)N[C@@H](CO)C(=O)NCC(=O)N[C@@H](C)C(=O)N1CCC[C@H]1C(=O)N1CCC[C@H]1C(=O)N1CCC[C@H]1C(=O)N[C@@H](CO)C(=O)NCC(=O)N[C@@H](CO)C(=O)N[C@@H](CCC(=O)O)C(N)=O)[C@@H](C)CC [Example 1023] | 0.235 nM | 856 nM | 1.47 nM | 3.82 nM | 230 nM | 26 nM | – | – | –
14 | H-Y[Aib]QGTFTSDFS[Orn][αMeL]LDKK([AEEA-γGlu-C18 diacid])AQ[Aib]AFIEWLLEGGSSSGAPPPGGT-NH2 [Example 272] | 0.254 nM | 1540 nM | 2.62 nM | 7.91 nM | 486 nM | 36.3 nM | – | – | –
